Measured values: patent US8168650B2, “Therapeutic uses of bicyclic ligands of sigma 2 receptor” (priority 2006, dated 2012)
Entries after “also recorded” stand apart in the source; their conditions may differ. Read-outs that look alike come from different tables or passages of the source.

What was measured:
EMT-6 cells [1] = assay: Cytotoxicity assay (MTS) in EMT-6 cells; assay type: cell-based, mouse
Method: Cell culture conditions. EMT-6 mouse breast tumor cells^39 were cultured in DMEM supplemented with 10% fetal bovine serum. The cells were maintained at 37° C. in a humidified incubator with a 5% CO2/95% air atmosphere.
Cytotoxicity assay. The cytotoxic effect of the sigma ligands on EMT-6 cells was measured using the MTS colorimetric assay. MTS is bioreduced by cells into a colored formazan product with an absorbance at 490 nm. The quantity of the products is directly proportional to the number of viable cells in the culture. The MTS assay was performed using the CellTiter96Aqueous One Solution Assay (Promega, Madison, Wis.) according to the manufacturer's protocol. Briefly, EMT-6 cells were seeded at 2×10^3/well in 96-well plates on the day prior to treatment with the sigma ligand. Each sigma ligand was first dissolved in DMSO, and then serially diluted to get the desired concentration. The final concentration of DMSO in the cell culture medium was no more than 0.5%. After a 24 hour or 48 hour treatment with the various sigma ligands, cell death was assessed as follows. The CellTiter 96 AQueous One Solution Reagent was added to each well, and the plate was incubated for 2 hours at 37° C. The plate was then read at 490 nm in a Victor 3 plate reader (PerkinElmer Life and Analytical Sciences, Shelton, Conn.).
In these experiments, a number of sigma ligands, having a wide range of affinities for σ1 and σ2 receptors, were evaluated for their efficacy to kill EMT-6 cells. […] Cells were incubated for 24 hours or 48 hours with various concentrations of the sigma ligands. Cytotoxicity and cell viability were quantified using the MTS assay.

caspase-3/7 = assay: Caspase-3/7 whole cell assay in EMT-6 cells; assay type: cell-based, mouse; settings: EMT-6, 40 μM, 24 h
Method: Detection of intracellular cellular caspase-3/7 activity. The activation of endogenous caspase-3/7 by the sigma ligands was measured using the CellProbe HT caspase-3/7 whole cell assay (Beckman Coulter, Fullerton, Calif.). The cell permeable, nonfluorescent bisamide substrate, Z-DEVD-R110, was added to the intact cells to detect apoptosis. Upon specific cleavage by caspase-3/7, Z-DEVD-R110 is converted to a fluorescent compound, and the fluorescent signal can be measured as follows. After adding the substrate, Z-DEVD-R110, to the cells treated with a sigma ligand, the plate was incubated for an additional 1.5-2 hour, and the resulting fluorescence measured using a Victor 3 microplate fluorometer at excitation and emission wavelengths of 485 nm and 535 nm, respectively.
In these experiments, to assess whether caspase-like activity was involved in the cytotoxic pathway, a caspase-3/7 whole cell assay was performed. This assay has advantages over other cell-based assays which use a cell lysate to monitor the activity of caspase-3/7. By not disrupting the cells, the whole cell assay tends to minimize the background noise contributed by non-specific protease activity in the cell lysates. Consequently, a greater specificity for the caspase-3/7 activity can be achieved with the whole cell assay. […] The accumulation of the fluorescent product was quantified using a fluorescence microplate reader. […]

σ1 receptor [2] = target: T1, σ1 receptor (Cavia porcellus, UniProt Q60492)
Method: (§1) In vitro binding studies were conducted in order to determine the affinity of the target compounds at σ1 and σ2 receptors.
(§2) In this example, test compounds were dissolved in N,N-dimethylformamide (DMF), dimethylsulfoxide (DMSO) or ethanol and then diluted in 50 mM Tris-HCl, pH 7.4 buffer containing 150 mM NaCl and 100 mM EDTA. Membrane homogenates were made from guinea pig brain for σ1 binding assays and rat liver for σ2 binding assays. Membrane homogenates were diluted with 50 mM Tris-HCl buffer, pH 8.0, and incubated at 25° C. in a total volume of 150 μL in 96-well plates with the radioligand and test compounds with concentrations ranging from 0.1 nM to 10 μM. After incubation was completed, the reactions were terminated by the addition of 150 μL of ice-cold wash buffer (10 mM Tris-HCl, 150 mM NaCl, pH 7.4) using a 96-channel transfer pipette (Fisher Scientific, Pittsburgh, Pa.), and the samples harvested and filtered rapidly through 96-well fiberglass filter plate (Millipore, Billerica, Mass.) that had been presoaked with 100 μL of 50 mM Tris-HCl buffer, pH 8.0, for 1 h. Each filter was washed three times with 200 μL of ice cold wash buffer.
(§3) Ki values were calculated using the method of Cheng and Prusoff20 and represent mean values±SEM.

[3] = test system: pancreatic cancer cell lines (Panc-02, CFPAC-1, AsPC-1, Panc-1); assay: Apoptosis in pancreas cancer cell lines (TUNEL / cleaved caspase-3, flow cytometry); assay type: cell-based, mouse, human; settings: 24 hours incubation
Method: Tumor cells were seeded at a density of approximately 0.2×10^6 cells per well in 12-well plates in 1.0 ml culture medium. Cells were split and pre-incubated at 37° C. in humidified 5% CO2 for more than 24 hours (Panc-02) and 48 hours (CFPAC-1, AsPC-1, Panc-1) to insure uniform growth conditions. Compounds were dissolved in DMSO and added to the culture medium at the concentrations indicated. The final concentration of DMSO in the cell culture medium was less than 1%. The cells were then incubated for 24 hours at 37° C. in humidified 5% CO2. The extent of apoptosis was subsequently measured as previously reported (Guelen, L., et al., Oncogene 2004, 23: 1153-1165). Briefly, staining was performed on trypsin-EDTA treated cultures that had been fixed with 1% paraformaldehyde and 90% methanol. Cell pellets were resuspended in TUNEL reagent (APO-BRDU kit, San Diego, Calif.) or cleaved caspase-3 antibody (Cell Signaling Technology, Inc. Boston, Mass.) and incubated overnight at room temperature (TUNEL) or 4° C. (cleaved caspase-3). After washing, cells were resuspended in fluorescein antibody or 7-AAD buffer and incubated for 1 hour at room temperature. Cell-associated fluorescence was determined using a flow cytometry (FACScan, BD Biosciences) and analyzed with CellQuest software (BD Biosciences).
At the highest dose tested (10 μM), all sigma-2 receptor ligands induced an additional 10-20% of the cells to undergo apoptosis (FIG. 15A). […] The pan-caspase inhibitor (Z-VAD-fmk) and caspase-3/7 inhibitor (DEVD-CHO) prevented sigma-2 receptor ligand-induced apoptosis in panc-02 cells, while the caspase-1 inhibitor (YVAD-CHO) had no effect (FIG. 15B).

EMT-6 cells [4] = assay: Colony formation assay on Doxorubicin-treated EMT-6 cells; assay type: cell-based, mouse
Method: This Example illustrates colony formation assay on Doxorubicin (“Dox”)-treated EMT-6 cells in the presence or absence of 2 μM WC-II-26. The structures of the sigma ligands used in this and subsequent examples are illustrated in FIG. 5 and FIG. 6.

EMT-6 cells [5] = assay: TUNEL assay, enhancement of Dox-induced apoptosis in EMT-6 cells; assay type: cell-based, mouse
Method: In these experiments, a TUNEL assay was used to detect apoptotic cells with damaged DNA strands. […] Furthermore, EMT-6 cells treated with Dox at 30 nM yielded only 10% TUNEL-positive cells. However, when EMT-6 cells were treated with 2 μM WC-II-26 plus 30 nM Dox, the percentage of TUNEL-positive cells rose to 43.3%.

Panc-02 tumors = assay: Antitumor effect in vivo: tumor growth and survival, Panc-02 model; parameters: species or system C57BL/6 mice; settings: listed as WC26
Method: Mean tumor diameter was measured three times each week.

σ1 receptor [6] = target: T1, σ1 receptor; assay: biochemical
Method: as §1, §2, §3

[7] = Toxicity in treated mice (serum biochemistry, immunohistochemistry)
Method: Female C57BL/6 mice (8-12 weeks old) were purchased from the NCI and acclimated for at least 1 week before tumor implantation. […] For the survival study, mice (N=10 per group) were treated with sigma-2 receptor ligand at the stated concentration or vehicle control once a day for 5 days.

Panc-02 tumor allografts = assay: In vivo apoptosis (FACS, active caspase-3) in tumor and organs of Panc-02 bearing mice
Method: Female C57BL/6 mice (8-12 weeks old) were purchased from the NCI and acclimated for at least 1 week before tumor implantation. All mice were injected in the right flank with 200 μl of a single cell suspension containing 1.0×10^6 Panc-02 cells. Treatment of the tumors started 2 weeks after tumor implantation when their size reached a mean diameter of 5-8 mm. To evaluate the effect of sigma-2 receptor ligands both systemically and on tumor in vivo, several mice were sacrificed after a single treatment. Necropsy was performed and single cell suspensions were prepared from retrieved organs. The extent of apoptosis in these cells was measured by FACS (described above).

[8] = Mus musculus, EMT6, 24 h, read-out: EC50 (μM, 24 hours), EMT-6, MTS assay, 24 hours
[9] = Mus musculus, EMT6, 48 h, read-out: EC50 (μM, 48 hours), EMT-6, MTS assay, 48 hours

T1 sequence (Q60492 whole entry): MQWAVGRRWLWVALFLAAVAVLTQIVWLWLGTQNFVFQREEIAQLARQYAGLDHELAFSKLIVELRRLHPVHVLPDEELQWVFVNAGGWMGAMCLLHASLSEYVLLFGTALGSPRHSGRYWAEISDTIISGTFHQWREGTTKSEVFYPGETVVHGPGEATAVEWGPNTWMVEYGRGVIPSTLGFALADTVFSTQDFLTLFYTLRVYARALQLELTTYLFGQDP

O[C@@H](CN1C2CCC1CC(c1ccccc1)C2)c1cccc(Br)c1 (some centres unmarked) [RHM-I-138]
EC50 (EMT-6 cells [1]; [8]): 32.5 ± 3.5 µM
EC50 (EMT-6 cells [1]; [9]): 16 µM
EC50 (EMT-6 cells [1]; read-out: EC50 (μM, 48 hours), EMT-6, MTS assay, 48 hours): 16.5 ± 2.1 µM
increase of endogenous caspase-3/7 activity compared with untreated cells (caspase-3/7): 2 fold
Ki (σ1 receptor [2]): 0.544 µM

COc1ccc(C)cc1NC(=O)OC1CC2CCCC(C1)N2CCCCCCN (centres unmarked) [SV119]
EC50 (EMT-6 cells [1]; [8]): 16 ± 1.4 µM
EC50 (EMT-6 cells [1]; [9]): 11 µM
increase of endogenous caspase-3/7 activity compared with untreated cells (caspase-3/7): 2 fold
apoptosis in all pancreas cancer cell lines tested [3]: dose-dependent apoptosis

COc1ccc(C)cc1NC(=O)O[C@H]1C[C@H]2CCC[C@@H](C1)N2Cc1ccc(N(C)C)cc1 [WC-II-26]
EC50 (EMT-6 cells [1]; [8]): 42.5 ± 3.5 µM
EC50 (EMT-6 cells [1]; [9]): 12.5 µM
number of colonies formed compared to control cells (EMT-6 cells [4]; EMT-6, 2 μM WC-II-26 alone): not changed significantly
ability of survival reduced (% of control) (EMT-6 cells [4]; EMT-6, 2 μM WC-II-26 combined with 10 nM Dox): 38 % of control
ability of survival reduced (% of control) (EMT-6 cells [4]; EMT-6, 2 μM WC-II-26 combined with 20 nM Dox): 77 % of control
ability of survival reduced (% of control) (EMT-6 cells [4]; EMT-6, 2 μM WC-II-26 combined with 30 nM Dox): 86 % of control
ability of survival reduced (% of control) (EMT-6 cells [4]; EMT-6, 2 μM WC-II-26 combined with 40 nM Dox): 92 % of control
TUNEL-positive cells (EMT-6 cells [5]; EMT-6, 2 μM WC-II-26 alone): less than 5%
TUNEL-positive cells (EMT-6 cells [5]; EMT-6, 2 μM WC-II-26 plus 30 nM Dox): 43.3%
apoptosis in all pancreas cancer cell lines tested [3]: dose-dependent apoptosis
tumor growth / tumor size versus vehicle control (Panc-02 tumors; 50 or 100 mg/kg (1 or 2 mg/day) intraperitoneal once a day for five days): tumors shrank; also recorded: smaller tumors
survival (tumor diameter 15 mm or ulceration as endpoint) (Panc-02 tumors; 50 or 100 mg/kg (1 or 2 mg/day) once a day for five days, p=0.002): significant survival benefit; also recorded: compared favorably
Ki (σ1 receptor [6]): 5.57 µM
acute, systemic toxicity based on blood chemistry parameters ([7]; 50 or 100 mg/kg once a day for five days): no acute, systemic toxicity
acute toxicity on immunohistochemical evaluation of normal tissues ([7]; after WC26 treatment (data not shown)): no acute toxicity
toxicity in serum biochemistry data ([7]; after systemic administration): no apparent toxicity
effect on serum biochemistry at the highest dose tested ([7]; values still within reference ranges): elevated AST and depressed creatinine and glucose levels
tumor cells active caspase-3 positive (Panc-02 tumor allografts; single 2 mg dose, Panc-02 tumor allografts, p<0.0001): up to 50%
apoptosis in pancreas and livers (Panc-02 tumor allografts; systemic administration): < 10%
apoptosis in brain, lung, kidney or spleen (active caspase-3, FACS) (Panc-02 tumor allografts; systemic administration, any of the concentrations tested): did not induce apoptosis
